From patent publication US9085561B2, “Cyclic urea- or lactam-substituted quinoxaline-type piperidines as ORL-1 modulators” (priority 2012, dated 2015)

Target: human CYP2D6 (Homo sapiens, UniProt P10635)
Assay: Cytochrome P450 2D6 inhibition (dextromethorphan O-demethylation, pooled human hepatic microsome)

Chain of human CYP2D6 (P10635 whole entry): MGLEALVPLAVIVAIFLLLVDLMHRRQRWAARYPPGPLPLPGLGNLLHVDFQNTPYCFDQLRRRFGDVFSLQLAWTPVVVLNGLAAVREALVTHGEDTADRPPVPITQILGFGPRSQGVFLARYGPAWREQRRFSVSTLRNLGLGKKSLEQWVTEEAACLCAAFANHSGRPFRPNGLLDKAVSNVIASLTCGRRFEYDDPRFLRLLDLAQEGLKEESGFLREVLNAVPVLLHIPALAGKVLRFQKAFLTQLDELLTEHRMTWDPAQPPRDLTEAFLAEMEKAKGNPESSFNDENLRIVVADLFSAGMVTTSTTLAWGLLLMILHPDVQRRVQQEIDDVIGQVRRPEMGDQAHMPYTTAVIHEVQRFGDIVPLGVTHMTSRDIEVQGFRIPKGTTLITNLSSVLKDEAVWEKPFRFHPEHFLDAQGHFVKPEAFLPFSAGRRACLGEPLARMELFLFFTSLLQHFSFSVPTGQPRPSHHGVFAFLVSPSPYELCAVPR

SMILES | IC50 [µM]
O=C(O)Cn1ccc(-c2nc3ccccc3n([C@H]3C[C@H]4CCC[C@@H](C3)N4[C@H]3C[C@@H]4CCC[C@@H](C4)C3)c2=O)cc1=O [Compound U010, 2-(4-(4-((1R,1′R,3r,3R,5S,5′S)-[3,9′-bi(9′-azabicyclo[3.3.1]nonan)]-3′-yl)-3-oxo-3,4-dihydroquinoxalin-2-yl)-2-oxopyridin-1(2H)-yl)acetic acid] | > 20
O=C(O)Cn1c(-c2nc3ccccc3n([C@H]3C[C@H]4CC[C@@H](C3)N4[C@H]3C[C@@H]4CCC[C@@H](C4)C3)c2=O)cccc1=O [Q1a(iii), 2-(6-(4-((1R,3R,5S)-8-((1R,3r,5S)-bicyclo[3.3.1]nonan-3-yl)-8-azabicyclo[3.2.1]octan-3-yl)-3-oxo-3,4-dihydroquinoxalin-2-yl)-2-oxopyridin-1(2H)-yl)acetic acid] | > 20
CC1(C)NC(=O)N(c2nc3ccccc3n([C@H]3C[C@H]4CCC[C@@H](C3)N4[C@@H]3C[C@@H]4CCCC[C@@H](C4)C3)c2=O)C1=O [Compound O22b, 3-(4-((1R,3R,5S)-9-((1R,6S,8s)-bicyclo[4.3.1]decan-8-yl)-9-azabicyclo[3.3.1]nonan-3-yl)-3-oxo-3,4-dihydroquinoxalin-2-yl)-5,5-dimethylimidazolidine-2,4-dione] | > 20
O=C(O)Cn1c(-c2nc3ccccc3n([C@H]3C[C@H]4CCC[C@@H](C3)N4[C@@H]3C[C@@H]4CCCC[C@@H](C4)C3)c2=O)cccc1=O [EE1b(iii), 2-(6-(4-((1R,3R,5S)-9-((1R,6S,8s)-bicyclo[4.3.1]decan-8-yl)-9-azabicyclo[3.3.1]nonan-3-yl)-3-oxo-3,4-dihydroquinoxalin-2-yl)-2-oxopyridin-1(2H)-yl)acetic acid] | > 20
Nc1ccn(-c2nc3ccccc3n([C@H]3C[C@H]4CC[C@@H](C3)N4[C@@H]3C[C@@H]4CCCC[C@@H](C4)C3)c2=O)c(=O)n1 [Compound U066, 3-(4-amino-2-oxopyrimidin-1(2H)-yl)-1-((1R,3R,5S)-8-((1R,6S,8s)-bicyclo[4.3.1]decan-8-yl)-8-azabicyclo[3.2.1]octan-3-yl)quinoxalin-2(1H)-one] | > 20
C[C@@H]1C[C@@H]2C[C@H](C1)C[C@@H](N1[C@@H]3CCC[C@H]1C[C@@H](n1c(=O)c(-c4ccc(=O)[nH]c4)nc4ccccc41)C3)C2 [Compound U060, 1-((1R,1′R,3r,3′R,5S,5′S,7S)-7-methyl-[3,9′-bi(9′-azabicyclo[3.3.1]nonan)]-3′-yl)-3-(6-oxo-1,6-dihydropyridin-3-yl)quinoxalin-2(1H)-one] | > 20
O=C(O)Cn1cccc(-c2nc3ccccc3n([C@H]3C[C@H]4CCC[C@@H](C3)N4[C@H]3C[C@@H]4CCC[C@@H](C4)C3)c2=O)c1=O [R15a(iii), 2-(3-(4-((1R,1′R,3r,3′R,5S,5′S)-[3,9′-bi(9′-azabicyclo[3.3.1]nonan)]-3′-yl)-3-oxo-3,4-dihydroquinoxalin-2-yl)-2-oxopyridin-1(2H)-yl)acetic acid] | > 20
Cc1cc(=O)[nH]c(=O)n1-c1nc2ccccc2n([C@H]2C[C@H]3CCC[C@@H](C2)N3[C@H]2C[C@@H]3CCC[C@@H](C3)C2)c1=O [Compound U065, 1-(4-((1R,1R,3r,3′R,5S,5′S)-[3,9′-bi(9′-azabicyclo[3.3.1]nonan)]-3′-yl)-3-oxo-3,4-dihydroquinoxalin-2-yl)-6-methylpyrimidine-2,4(1H,3H)-dione] | > 20
C[C@@H]1C[C@@H]2C[C@H](C1)C[C@@H](N1[C@@H]3CCC[C@H]1C[C@@H](n1c(=O)c(-c4cc(C(=O)O)c[nH]c4=O)nc4ccccc41)C3)C2 [R28a(i), 5-(4-((1R,1′R,3r,3′R,5S,5′S,7S)-7-methyl-[3,9′-bi(9′-azabicyclo[3.3.1]nonan)]-3′-yl)-3-oxo-3,4-dihydroquinoxalin-2-yl)-6-oxo-1,6-dihydropyridine-3-carboxylic acid] | > 20
N[C@@H]1CCN(c2nc3ccccc3n([C@H]3C[C@H]4CC[C@@H](C3)N4C3CCCCCCC3)c2=O)C1 [CC101, reference compound] | < 1
O=c1[nH]nc(-c2nc3ccccc3n([C@H]3C[C@H]4CCC[C@@H](C3)N4[C@H]3C[C@@H]4CCC[C@@H](C4)C3)c2=O)[nH]1 [R6a(i)(i), 1-((1R,1′R,3r,3′R,5S,5′S)-[3,9′-bi(9′-azabicyclo[3.3.1]nonan)]-3′-yl)-3-(5-oxo-4,5-dihydro-1H-1,2,4-triazol-3-yl)quinoxalin-2(1H)-one] | > 20
O=c1[nH]nc(-c2nc3ccccc3n([C@H]3C[C@H]4CCC[C@@H](C3)N4[C@@H]3C[C@@H]4CCCC[C@@H](C4)C3)c2=O)[nH]1 [EE6b(i)(i), 1-((1R,3R,5S)-9-((1R,6S,8s)-bicyclo[4.3.1]decan-8-yl)-9-azabicyclo[3.3.1]nonan-3-yl)-3-(5-oxo-4,5-dihydro-1H-1,2,4-triazol-3-yl)quinoxalin-2(1H)-one] | > 20
Nc1nc(=O)n(-c2nc3ccccc3n([C@H]3C[C@H]4CCC[C@@H](C3)N4[C@@H]3C[C@@H]4CCCC[C@@H](C4)C3)c2=O)cc1F [Compound U067] | > 20
N[C@@H]1CCN(c2nc3ccccc3n(C3CCN(C4CCCCCCC4)CC3)c2=O)C1 [CC51, reference compound] | < 1
O=c1cnn(-c2nc3ccccc3n([C@H]3C[C@H]4CC[C@@H](C3)N4[C@@H]3C[C@@H]4CCCC[C@@H](C4)C3)c2=O)c(=O)[nH]1 [Compound N9b, 2-(4-((1R,3R,5S)-8-((1R,6S,8s)-bicyclo[4.3.1]decan-8-yl)-8-azabicyclo[3.2.1]octan-3-yl)-3-oxo-3,4-dihydroquinoxalin-2-yl)-1,2,4-triazine-3,5(2H,4H)-dione] | > 20
O=C(O)Cn1c(-c2nc3ccccc3n([C@H]3C[C@H]4CCC[C@@H](C3)N4C3CCCCCCCCC3)c2=O)cccc1=O [BB1c(iii), 2-(6-(4-((1R,3r,5S)-9-cyclodecyl-9-azabicyclo[3.3.1]nonan-3-yl)-3-oxo-3,4-dihydroquinoxalin-2-yl)-2-oxopyridin-1(2H)-yl)acetic acid] | > 20
O=C1CCN(c2nc3ccccc3n(C3CCN(C4CCCCCCC4)CC3)c2=O)N1 [CC119, reference compound] | > 20
N[C@H]1CCN(c2nc3ccccc3n(C3CCN(C4CCCCCCC4)CC3)c2=O)C1 [CC39, reference compound] | < 1
O=C(O)CN1CCN(c2nc3ccccc3n([C@H]3C[C@H]4CC[C@@H](C3)N4C3CCCCCCC3)c2=O)CC1 [CC337, reference compound] | 13
Nc1nc(=O)n(-c2nc3ccccc3n([C@H]3C[C@H]4CCC[C@@H](C3)N4[C@H]3C[C@@H]4CCC[C@@H](C4)C3)c2=O)cc1F [B7a(i), 1-((1R,1′R,3r,3′R,5S,5′S)-[3,9′-bi(9′-azabicyclo[3.3.1]nonan)]-3′-yl)-3-(4-amino-5-fluoro-2-oxopyrimidin-1(2H)-yl)quinoxalin-2(1H)-one] | > 20
Cc1nn(-c2nc3ccccc3n([C@H]3C[C@H]4CCC[C@@H](C3)N4[C@@H]3C[C@@H]4CCCC[C@@H](C4)C3)c2=O)c(=O)[nH]c1=O [Compound O10b, 2-(4-((1R,3R,5 S)-9-((1R,6S,8s)-bicyclo[4.3.1]decan-8-yl)-9-azabicyclo[3.3.1]nonan-3-yl)-3-oxo-3,4-dihydroquinoxalin-2-yl)-6-methyl-1,2,4-triazine-3,5(2H,4H)-dione] | > 20
